From ChEMBL document CHEMBL1144639, “Imidazo[1,2-a]pyridines with potent activity against herpesviruses” (Bioorg Med Chem Lett, 2007)

Columns and labels:
[1] = Cytotoxicity against Vero cells; assay type: cell-based; conditions: chlorocebus sabaeus
Human alphaherpesvirus 1 = assay: Antiviral activity against HSV1 SC16 in Vero cells by capture hybrid method; assay type: functional, organism-based; conditions: Human alphaherpesvirus 1, SC16, Vero

| SMILES | CC50 [1] | IC50 (Human alphaherpesvirus 1) |
| --- | --- | --- |
| COCCNc1cccn2c(-c3ccnc(NC4CCCC4)n3)c(-c3ccc(F)cc3)nc12 | > 40000 nM | 260 nM |
| Oc1cccc(-c2nc3c(NC4CCCC4)cccn3c2-c2ccnc(NC3CCCC3)n2)c1 | > 40000 nM | 3130 nM |
| COc1ccc(-c2nc3c(Cl)cccn3c2-c2ccnc(NC3CCCC3)n2)cc1 | 30100 nM | 1430 nM |
| Fc1ccc(-c2nn3c(NC4CCCC4)cccc3c2-c2ccnc(NC3CCCC3)n2)cc1 | > 160000 nM | – |
| Fc1ccc(-c2nc3c(NC4CCCC4)cccn3c2-c2ccnc(NC3CCCC3)c2)cc1 | > 40000 nM | – |
| C=CCOc1ccc(-c2nc3c(NC4CCCC4)cccn3c2-c2ccnc(NC3CCCC3)n2)cc1 | > 40000 nM | 570 nM |
| Fc1ccc(-c2nc3c(NC4CCCC4)cccn3c2-c2ccnc(NC3CCCC3)n2)cc1 | > 40000 nM | 590 nM |
| C=CCOc1cccc(-c2nc3c(NC4CCCC4)cccn3c2-c2ccnc(NC3CCCC3)n2)c1 | > 40000 nM | 300 nM |
| CNc1nccc(-c2c(-c3ccc(F)cc3)nc3c(Cl)cccn23)n1 | > 40000 nM | 9300 nM |
| CCCCNc1cc(Br)cn2c(-c3ccnc(NC4CCCC4)n3)c(-c3ccc(F)cc3)nc12 | > 40000 nM | 300 nM |
| COc1cccc(-c2nc3c(Cl)cccn3c2-c2ccnc(NC3CCCC3)n2)c1 | > 40000 nM | 1730 nM |
| Fc1ccc(-c2nc3c(Br)cc(Br)cn3c2-c2ccnc(NC3CCCC3)n2)cc1 | > 40000 nM | 800 nM |
| Fc1ccc(-c2nc3c(NC4CC4)cccn3c2-c2ccnc(NC3CCCC3)n2)cc1 | 33000 nM | 510 nM |
| Cc1cc(NC2CCCC2)cn2c(-c3ccnc(NC4CCCC4)n3)c(-c3ccc(F)cc3)nc12 | > 40000 nM | 150 nM |
| Fc1ccc(-c2nc3ccc(Br)cn3c2-c2ccnc(NC3CCCC3)n2)cc1 | > 40000 nM | 4080 nM |
| Cc1cccn2c(-c3ccnc(NC4CCCC4)n3)c(-c3ccc(F)cc3)nc12 | > 40000 nM | 1530 nM |
| Cc1cc(NC2CC2)cn2c(-c3ccnc(NC4CCCC4)n3)c(-c3ccc(F)cc3)nc12 | > 40000 nM | 120 nM |

| SMILES | CC50 [1] | IC50 (Human alphaherpesvirus 1) |
| --- | --- | --- |
| Nc1nc2c(ncn2COCCO)c(=O)[nH]1 [ACYCLOVIR] | > 200000 nM | – |
| Cc1ccc(-c2nc3c(NC4CCCC4)cccn3c2-c2ccnc(NC3CCCC3)n2)cc1 | > 40000 nM | 1610 nM |
| Fc1ccc(-c2nc3c(Cl)cc(Cl)cn3c2-c2ccnc(NC3CCCC3)n2)cc1 | > 40000 nM | 1110 nM |
| Fc1ccc(-c2nc3c(NC4CCCC4)cc(Cl)cn3c2-c2ccnc(NC3CCCC3)n2)cc1 | > 40000 nM | 370 nM |
| CCCCNc1cccn2c(-c3ccnc(NC4CCCC4)n3)c(-c3ccc(F)cc3)nc12 | 32000 nM | 800 nM |
| CNc1nccc(-c2c(-c3ccc(F)cc3)nc3c(NC4CCCC4)cccn23)n1 | > 40000 nM | > 5000 nM |
| COc1ccc(-c2nc3c(NC4CCCC4)cccn3c2-c2ccnc(NC3CCCC3)n2)cc1 | > 10000 nM | 480 nM |
| Fc1ccc(-c2nc3c(N4CCCC4)cccn3c2-c2ccnc(NC3CCCC3)n2)cc1 | > 40000 nM | 1880 nM |
| Fc1ccc(-c2nc3c(NC4CCCC4)cc(Br)cn3c2-c2ccnc(NC3CCCC3)n2)cc1 | > 40000 nM | 220 nM |
| N#Cc1ccc(-c2nc3c(NC4CCCC4)cccn3c2-c2ccnc(NC3CCCC3)n2)cc1 | > 40000 nM | 320 nM |
| COc1cccc(-c2nc3c(NC4CCCC4)cccn3c2-c2ccnc(NC3CCCC3)n2)c1 | > 40000 nM | 710 nM |
| Fc1ccc(-c2nc3ccccn3c2-c2ccnc(NC3CCCC3)n2)cc1 | > 40000 nM | 3300 nM |
| Fc1ccc(-c2nc3ccc(NC4CCCC4)cn3c2-c2ccnc(NC3CCCC3)n2)cc1 | > 40000 nM | 330 nM |
| N#Cc1cccc(-c2nc3c(NC4CCCC4)cccn3c2-c2ccnc(NC3CCCC3)n2)c1 | > 40000 nM | 360 nM |
| c1cc(NC2CCCC2)c2nc(-c3ccc(OCC4CC4)cc3)c(-c3ccnc(NC4CCCC4)n3)n2c1 | > 40000 nM | 270 nM |
| Cc1cc(Br)cn2c(-c3ccnc(NC4CCCC4)n3)c(-c3ccc(F)cc3)nc12 | > 40000 nM | 1160 nM |
| Oc1ccc(-c2nc3c(NC4CCCC4)cccn3c2-c2ccnc(NC3CCCC3)n2)cc1 | > 40000 nM | 3400 nM |
